pEC50: −log10 of the molar value. “Also recorded” adds a separate entry of the source. Like-named read-outs stand apart in the source and are kept apart here.
Columns and labels:
TRPV1 = molecular target: T1, TRPV1 (Rattus norvegicus, UniProt O35433); assay: Whole-cell patch clamp of TRPV1 currents in HEK293 cells overexpressing TRPV1 (HEK293-V1); assay type: cell-based; settings: for attainment of the pore-dilated state: 50 μM, induction time 25 hours (FIGS. 37-40C); for inward current induced: cannabinoid at 50 (FIGS. 3A, 4A, 6A, 7A), applied at data point 60; for time course of induced TRPV1 current (sustained or inactivating): cannabinoid at 50, 5 μM myrcene or 1 μM capsaicin; for Max I amplitude: 120 s, Ca 1 mM external, unbuffered internal calcium; for current development and inactivation: constant external calcium, internal Ca2+ 0 nM, 180 nM, 620 nM, FCa (FIGS. 23, 24)
T1 construct: FLAG; expressed in transfected cells
Experimental: HEK TRexTRPV1 were cultured in DMEM, 10% Fetal Bovine Serum, 2 mM Lglutamine, 10 μg/ml Blasticidin (Calbiochem, San Diego Calif.), 400 μg/ml Zeocin (InvivoGen, San Diego Calif.), where indicated transgene expression was induced using 1 μg/ml Tetracycline for 16-24 hrs. Unless otherwise indicated, basal expression of TRPV1 without induction was sufficient for these studies, and comparisons were made to untransfected HEK where needed. HEKTRex293 over-expressing human TRPV2, human TRPA1 and human TRPM8 were obtained from SB Drug Discovery (Glasgow, Scotland) and cultured as described above. The cannabinoids and terpenes were assayed in HEK cells that have been transfected with the TRPV1 ion channel protein. These cells are called HEK293-V1 cells.
This technique is used to study ionic currents from HEK293-V1. The voltage across the cell membrane is controlled and the ionic currents associated with changes in voltage are measured. A micropipette tip is pulled to a few micrometers in diameter followed by heating the tip to produce a smooth surface that assists in forming a high resistance seal with the cell membrane. To obtain this high resistance seal, the micropipette is pressed against a cell membrane and suction is applied. The membrane then fuses onto the glass surface creating a high resistance in the gigaohm range. This makes it possible to isolate electronically the ionic currents measured across the membrane patch or across the entire cell.
Patch-clamp experiments were performed in the whole-cell configuration at 21-25° C. Patch pipettes had resistances of 2-3 MΩ. Data was acquired with PatchMaster software (HEKA, Lambrecht, Germany), controlling an EPC-9 amplifier. Voltage ramps of 50 ms spanning the voltage range from −100 to 100 mV were delivered from a holding potential of 0 mV at a rate of 0.5 Hz over a period of 500 ms to 180 seconds (3 minutes). Voltages were corrected for a liquid junction potential of 10 mV. Currents were filtered at 2.9 kHz and digitized at 100 μs intervals. Capacitive currents were determined and corrected before each voltage ramp. The development of currents for a given potential was extracted from individual ramp current records by measuring the current amplitudes at voltages of −80 mV and +80 mV. Data were analyzed with FitMaster (HEKA, Lambrecht, Germany), and IgorPro (WaveMetrics, Lake Oswego, Oreg., USA). Where applicable, statistical errors of averaged data are given as mean±s.e.m with n determinations. The activated current amplitudes are analyzed by nA rather than pA/pF. […] Also the cell size selected for patching was in the 9 -12 pF range.
For patch-clamp recordings, HEK293 cells were kept in a standard sodium-based external Ringer's solution containing (mM): 140 NaCl, 1 CaCl2, 2 MgCl2, 2.8 KCl, 11 glucose, 10 HEPES-NaOH with a pH of 7.2 and osmolarity of 300 mOsmol. To assess the effects of external Calcium (Ca) on TRPV1 inactivation kinetics, Ca at different levels were tested including 0, 1, and 3 mM. In Experiments with zero external Ca, EGTA 10 mM was added and the Na concentration was lowered to 130 mM to maintain standard osmotic conditions at 300 mOsmol. For rapid external solution application and exchanges we used the SmartSquirt delivery system (Auto-Mate Scientific, San Francisco Calif., USA) that included four cryo tubes allowing for solution exchanges within one patch. This system included a ValveLink TTL interface between the electronic valves and the EPC10 amplifier (HEKA, Lambrecht, Germany). This electronic configuration allowed for programmable solution changes via the PatchMaster software (HEKA, Lambrecht, Germany).

WT HEK293 = assay: Bulk calcium assay in untransfected WT HEK293; assay type: cell-based; settings: 10 μM, 1 mM external Ca2+
[1] = after cannabinoid at 50 (voltage ramp)
[2] = calculated from Imax per dose, HEK-TRPV1 patch clamp, read-out: EC50 at TRPV1
[3] = CBD-induced current, internal Ca2+ 0, external Ca2+ 0 mM
[4] = CBD-induced current, internal Ca2+ 0, external Ca2+ 1 mM
[5] = CBD-induced current, internal Ca2+ 0, external Ca2+ 3 mM
[6] = CBD-induced current, internal Ca2+ 180 nM, external Ca2+ 0 mM
[7] = CBD-induced current, internal Ca2+ 180 nM, external Ca2+ 1 mM
[8] = CBD-induced current, internal Ca2+ 180 nM, external Ca2+ 3 mM
[9] = CBD-induced current, internal Ca2+ >620 nM (free Ca2+), external Ca2+ 0 mM
[10] = CBD-induced current, internal Ca2+ >620 nM (free Ca2+), external Ca2+ 1 mM
[11] = CBD-induced current, internal Ca2+ >620 nM (free Ca2+), external Ca2+ 3 mM

T1 sequence (O35433 whole entry): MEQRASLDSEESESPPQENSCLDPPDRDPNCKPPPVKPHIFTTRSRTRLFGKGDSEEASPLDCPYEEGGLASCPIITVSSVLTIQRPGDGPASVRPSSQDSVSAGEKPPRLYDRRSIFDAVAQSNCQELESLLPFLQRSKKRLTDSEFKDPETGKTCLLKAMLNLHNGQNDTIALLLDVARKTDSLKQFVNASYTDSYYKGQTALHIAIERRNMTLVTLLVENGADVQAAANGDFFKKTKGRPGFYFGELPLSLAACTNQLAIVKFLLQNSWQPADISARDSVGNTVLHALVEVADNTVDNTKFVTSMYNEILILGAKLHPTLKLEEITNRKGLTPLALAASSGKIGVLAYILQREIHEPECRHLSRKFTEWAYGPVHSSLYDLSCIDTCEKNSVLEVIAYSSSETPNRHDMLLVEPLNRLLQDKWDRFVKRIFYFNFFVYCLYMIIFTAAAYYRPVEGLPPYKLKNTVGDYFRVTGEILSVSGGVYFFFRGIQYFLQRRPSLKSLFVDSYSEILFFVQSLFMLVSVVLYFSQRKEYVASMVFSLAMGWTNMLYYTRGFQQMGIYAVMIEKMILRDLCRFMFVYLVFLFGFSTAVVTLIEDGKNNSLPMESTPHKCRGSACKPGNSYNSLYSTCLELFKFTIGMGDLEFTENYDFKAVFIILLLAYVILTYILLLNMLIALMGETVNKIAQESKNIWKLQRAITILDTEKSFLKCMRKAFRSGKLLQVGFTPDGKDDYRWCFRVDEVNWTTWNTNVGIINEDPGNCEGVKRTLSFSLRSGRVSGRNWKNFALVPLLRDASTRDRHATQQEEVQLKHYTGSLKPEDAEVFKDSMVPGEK

CCCCCc1cc(O)c(C/C=C(\C)CCC=C(C)C)c(O)c1 [CBG, Cannabigerol]
attainment of the pore-dilated state (TRPV1): lack of attainment of the pore-dilated state | IV relationship / TRPV1 channel state (TRPV1; [1]): outwardly-rectifying IV curve consistent with un-dilated TRPV1 (state 1) | pEC50 (TRPV1; [2]): 4.72 | inward current induced (TRPV1): 4-5 nA | time course of induced TRPV1 current (sustained or inactivating) (TRPV1): sustained | Rate of inactivation (TRPV1; dose 10 micromolar): 0 dpsec^−1 | Time to max (TRPV1; dose 10 micromolar): 120 s | Max I amplitude (TRPV1; dose 10 micromolar): 0.2 nA | Rate of inactivation (TRPV1; dose 30 micromolar): .007 dpsec^−1 | Time to max (TRPV1; dose 30 micromolar): 94 s | Max I amplitude (TRPV1; dose 30 micromolar): 0.6 nA | Rate of inactivation (TRPV1; dose 50 micromolar): .008 dpsec^−1 | Time to max (TRPV1; dose 50 micromolar): 96 s | Max I amplitude (TRPV1; dose 50 micromolar): 0.7 nA | Rate of inactivation (TRPV1; dose 150 micromolar): .014 dpsec^−1 | Time to max (TRPV1; dose 150 micromolar): 92 s | Max I amplitude (TRPV1; dose 150 micromolar): 0.9 nA

C=C(C)[C@@H]1CCC(C)=C[C@H]1c1c(O)cc(CCC)cc1O [CBDV, Cannabidivarin]
attainment of the pore-dilated state (TRPV1): lack of attainment of the pore-dilated state | IV relationship / TRPV1 channel state (TRPV1; [1]): outwardly-rectifying IV curve consistent with un-dilated TRPV1 (state 1) | pEC50 (TRPV1; [2]): 4.25 | inward current induced (TRPV1): 2-3 nA | time course of induced TRPV1 current (sustained or inactivating) (TRPV1): sustained | Rate of inactivation (TRPV1; dose 10 micromolar): 0 dpsec^−1 | Time to max (TRPV1; dose 10 micromolar): 148 s | Max I amplitude (TRPV1; dose 10 micromolar): 0.5 nA | Rate of inactivation (TRPV1; dose 30 micromolar): .013 dpsec^−1 | Time to max (TRPV1; dose 30 micromolar): 136 s | Max I amplitude (TRPV1; dose 30 micromolar): 1.5 nA | Rate of inactivation (TRPV1; dose 50 micromolar): .009 dpsec^−1 | Time to max (TRPV1; dose 50 micromolar): 82 s | Max I amplitude (TRPV1; dose 50 micromolar): 0.9 nA | Rate of inactivation (TRPV1; dose 150 micromolar): .14 dpsec^−1 | Time to max (TRPV1; dose 150 micromolar): 62 s | Max I amplitude (TRPV1; dose 150 micromolar): 3.9 nA | calcium response of WT HEK293 (WT HEK293): responding slightly

CCCCCc1cc(O)c2c(c1)OC(C)(C)c1ccc(C)cc1-2 [CBN, Cannabinol]
pEC50 (TRPV1): 4.44 | inward and outward current magnitude compared to 50 μM CBN (TRPV1; 10 μM CBN): greater inward and outward current magnitude | IV relationship / TRPV1 channel state (TRPV1; after 10 μM CBN): becomes more linear; also recorded: partial state transition from state 1 to state 2 | IV relationship / TRPV1 channel state (TRPV1; [1]): outwardly-rectifying IV curve consistent with un-dilated TRPV1 (state 1) | inward current induced (TRPV1): 0.5-2 nA | time course of induced TRPV1 current (sustained or inactivating) (TRPV1): rapidly inactivating | current development and inactivation (TRPV1): activated quickly, but rapidly inactivated with a slower kinetic profile | Rate of inactivation (TRPV1; dose 10 micromolar): 0 dpsec^−1 | Time to max (TRPV1; dose 10 micromolar): 174 s | Max I amplitude (TRPV1; dose 10 micromolar): 0.4 nA | Rate of inactivation (TRPV1; dose 30 micromolar): 0 dpsec^−1 | Time to max (TRPV1; dose 30 micromolar): 176 s | Max I amplitude (TRPV1; dose 30 micromolar): 0.6 nA | Rate of inactivation (TRPV1; dose 50 micromolar): .010 dpsec^−1 | Time to max (TRPV1; dose 50 micromolar): 120 s | Max I amplitude (TRPV1; dose 50 micromolar): 1.5 nA | Rate of inactivation (TRPV1; dose 150 micromolar): .019 dpsec^−1 | Time to max (TRPV1; dose 150 micromolar): 82 s | Max I amplitude (TRPV1; dose 150 micromolar): 1.8 nA

C=C(C)[C@@H]1CCC(C)=C[C@H]1c1c(O)cc(CCCCC)cc1O [CBD, Cannabidiol]
pEC50 (TRPV1): 4.52 | type of TRPV1 current recorded (TRPV1; CBD 30 μM, Ca 0 internally and externally): outwardly rectifying current | transition to the pore-dilated state (TRPV1; CBD up to 150 μM, induction times 0-25 hours, currents about 10 nA): no transition to the pore-dilated state | Max rate of activation (TRPV1; CBD-induced current (30 μM, FIG. 22), internal Ca2+ 0, external Ca2+ 0 mM): 1.1% per S | Max rate of activation (TRPV1; CBD-induced current (30 μM, FIG. 22), internal Ca2+ 0, external Ca2+ 1 mM): 1.9% per S | Max rate of activation (TRPV1; CBD-induced current (30 μM, FIG. 22), internal Ca2+ 0, external Ca2+ 3 mM): 3% per S | Rate of inactivation (TRPV1; [3]): 0.41% per S | Time to max amplitude (TRPV1; [3]): 136 S | Rate of inactivation (TRPV1; [4]): 0.82% per S | Time to max amplitude (TRPV1; [4]): 94 S | Rate of inactivation (TRPV1; [5]): 0.94% per S | Time to max amplitude (TRPV1; [5]): 82 S | Max rate of activation (TRPV1; [6]): 1.6% per S | Rate of inactivation (TRPV1; [6]): 0.67% per S | Time to max amplitude (TRPV1; [6]): 108 S | Max rate of activation (TRPV1; [7]): 1.6% per S | Rate of inactivation (TRPV1; [7]): 0.71% per S | Time to max amplitude (TRPV1; [7]): 116 S | Max rate of activation (TRPV1; [8]): 2.4% per S | Rate of inactivation (TRPV1; [8]): 0.72% per S | Time to max amplitude (TRPV1; [8]): 92 S | Max rate of activation (TRPV1; [9]): 0.83% per S | Rate of inactivation (TRPV1; [9]): 0.49% per S | Time to max amplitude (TRPV1; [9]): 160 S | Max rate of activation (TRPV1; [10]): 1.5% per S | Rate of inactivation (TRPV1; [10]): 1.1% per S | Time to max amplitude (TRPV1; [10]): 120 S | Max rate of activation (TRPV1; [11]): 2.7% per S | Rate of inactivation (TRPV1; [11]): 1% per S | Time to max amplitude (TRPV1; [11]): 88 S | IV relationship / TRPV1 channel state (TRPV1; [1]): outwardly-rectifying IV curve consistent with un-dilated TRPV1 (state 1) | inward current induced (TRPV1): 4-6 nA | time course of induced TRPV1 current (sustained or inactivating) (TRPV1): sustained | current development and inactivation (TRPV1): gradual current development, which inactivated only when internal calcium is buffered above zero | Rate of inactivation (TRPV1; dose 10 micromolar): 0 dpsec^−1 | Time to max (TRPV1; dose 10 micromolar): 178 s | Max I amplitude (TRPV1; dose 10 micromolar): 0.8 nA | Rate of inactivation (TRPV1; dose 30 micromolar): 0 dpsec^−1 | Time to max (TRPV1; dose 30 micromolar): 180 s | Max I amplitude (TRPV1; dose 30 micromolar): 2.2 nA | Rate of inactivation (TRPV1; dose 50 micromolar): .02 dpsec^−1 | Time to max (TRPV1; dose 50 micromolar): 130 s | Max I amplitude (TRPV1; dose 50 micromolar): 1.6 nA | Rate of inactivation (TRPV1; dose 150 micromolar): .042 dpsec^−1 | Time to max (TRPV1; dose 150 micromolar): 96 s | Max I amplitude (TRPV1; dose 150 micromolar): 3.5 nA

From patent US20220387375A1, “TRPV1 ACTIVATION-MODULATING COMPLEX MIXTURES OF CANNABINOIDS AND/OR TERPENES” (GBS Global Biopharma, Inc., priority 2018, published 2022)
